Laboratory results as given in paper PMC12735704, “Synthesis of Substituted 1H-Phenalen-1-ones and Nitrogen-Containing Heterocyclic Analogues as Potential Anti-Plasmodial Agents” (Molecules, 2025).
Where two headings read alike, the source gives them in different places.

Assays:
[1] = tested on: Chloroquine-resistant P. falciparum FCR3; assay: In vitro antimalarial assay (parasitemia by blood smear, 48 h with compound); type: cell-based, Plasmodium falciparum; details: mean ± SD of three determinations
Description: • In vitro antimalarial assay.
FCR-3 chloroquine-resistant strain of P. falciparum (kindly provided by Dr. Fandeur, Pasteur Institute, Cayenne, France) was cultured on glucose-enriched RPMI 1640 medium, supplemented with 10% human serum at 37 °C. After 24 h of incubation at 37 °C, the medium was replaced by fresh medium supplemented with the compound to be evaluated (initial a screening used a concentration of 10 μg/mL), and incubation was continued for a further 48 h. On the third day of the test, a blood smear was taken from each well, and parasitemia was calculated for each concentration of sample compared to the control. Chloroquine (0.1 μg/mL) was used as a positive control. IC50 values were determined graphically by plotting concentrations (0.01–10 μg/mL) versus percent inhibition. All tests were performed in triplicate.

[2] = tested on: MCF-7 cells; assay: Cytotoxicity study by MTT proliferation assay; type: cell-based; details: 72 h; for MCF-7 % Inh ± DS (10 μM): inhibition of cell growth; for inhibition at 10 µM: Homo sapiens, MCF7, inhibition of cell growth, read-out: MCF-7 % Inh ± DS (10 μM)
Description: • Cytotoxicity study by MTT proliferation assay. MCF-7 cells were purchased from ATCC (Manassas, VA, USA) and cultured in DMEN containing 10% FBS. For 3-(4,5-dimethylthiazol-2-yl)-2,5-diphenyltetrazolium (MTT) (Sigma–Aldrich, St. Louis, MO, USA) analysis, cells were plated in 96-well plates at 10,000 cells/well. Twenty-four hours after plating, vehicle (0.1% DMSO, final concentration) or compound was added to cells at indicated doses. Seventy-two hours following compound addition, MTT was added to each well (0.5 mg/mL, final concentration) and plates were incubated for an additional 3 h at 37 °C. Medium was then aspirated and the formazan product was solubilized in SDS–HCl (20% SDS; HCl 0.02 M). The absorbance of each well was measured at 570 nm using a microplate reader (Sigma–Aldrich, St. Louis, MO, USA).

[3] = tested on: Chloroquine-resistant P. falciparum FCR3; assay: In vitro antimalarial assay (parasitemia by blood smear, 48 h with compound); type: cell-based, Plasmodium falciparum; details: for antiplasmodium activity (in words): FCR3 strain, tested up to 10 µM
[4] = tested on: Plasmodium falciparum; design: method as in PMID 23985373; details: previously tested compounds; read-out: IC50 (antiplasmodial activity, previously tested compounds); cited from earlier work
[5] = Plasmodium falciparum, FCR3, FCR3 strain

Compound: 2-((2,6-dimethylphenyl)amino)-2,3-dihydro-1H-phenalen-1-one [Compound 24]
- IC50 ([1]; FCR3 strain): > 10 µM
- MCF-7 % Inh ± DS (10 μM) [2]: 7 ± 0.5%

Compound: COc1cccc2c1C(=O)c1c(O)c3c(c(O)c1C2=O)C[C@@](O)(C(=O)CO)C[C@@H]3O[C@H]1C[C@H](N)[C@H](O)[C@H](C)O1 [Adriamycin, reference compound]
- inhibition at 10 µM [2]: 63 ± 4.7%

Compound: CCN(CC)CCCC(C)Nc1ccnc2cc(Cl)ccc12 (centres unmarked) [Chloroquine, reference compound]
- IC50 ([3]; Plasmodium falciparum, FCR3, read-out: Chloroquine-Resistant P. falciparum FCR3 IC50 ± SD): 0.16 ± 0.02 µM

Compound: O=C1C=Cc2cccc3cccc1c23 [Compound 1, 1H-phenalen-1-one]
- IC50 [1, 5]: 2.46 ± 0.08 µM
- inhibition at 10 µM [2]: 16 ± 0.4%

Compound: O=C1C=Cc2cccc3ccc(-c4ccccn4)c1c23 [Compound 1c]
- IC50 [4]: 21 µM

Compound: COc1ccc(C2=CC(=O)c3cccc4cccc2c34)cc1 [Compound 1d]
- IC50 [4]: 2.1 µM

Compound: O=C1C(Br)=Cc2cccc3cccc1c23 [Compound 2, 2-Bromo-1H-phenalen-1-one]
- IC50 ([1]; FCR3 strain): 0.7 ± 0.04 µM
- IC50 [1, 5]: < 1 µM
- inhibition at 10 µM [2]: 2 ± 0.7%

Compound: O=C1C(I)=Cc2cccc3cccc1c23 [Compound 3, 2-Iodo-1H-phenalen-1-one]
- antiplasmodium activity (in words) [3]: significant loss in antiplasmodium activity
- IC50 [1, 5]: > 10 µM
- inhibition at 10 µM [2]: 4 ± 0.4%

Compound: O=C1C(c2ccccc2)=Cc2cccc3cccc1c23 [Compound 4, 2-phenyl-1H-phenalen-1-one]
- antiplasmodium activity (in words) [3]: significant loss in antiplasmodium activity
- IC50 [1, 5]: > 10 µM
- inhibition at 10 µM [2]: 14 ± 0.8%

Compound: N#Cc1ccc(C2=Cc3cccc4cccc(c34)C2=O)cc1 [Compound 5, 4-(1-oxo-1H-phenalen-2-yl)benzonitrile]
- IC50 [1, 5]: > 10 µM
- inhibition at 10 µM [2]: 12 ± 0.3%

Compound: O=C1C(c2ccc(F)cc2)=Cc2cccc3cccc1c23 [Compound 6, 2-(4-fluorophenyl)-1H-phenalen-1-one]
- IC50 [1, 5]: > 10 µM
- inhibition at 10 µM [2]: 10 ± 2%

Compound: O=C1C(c2ccoc2)=Cc2cccc3cccc1c23 [Compound 7, 2-(3-furyl)-1H-phenalen-1-one]
- antiplasmodium activity (in words) [3]: significant loss in antiplasmodium activity
- IC50 [1, 5]: > 10 µM
- inhibition at 10 µM [2]: 22 ± 0.2%

Compound: O=C1C=Cc2cccc3ccc(-c4ccccc4)c1c23 [Compound 9, 9-Phenyl-1H-phenalen-1-one]
- IC50 [1, 5]: > 10 µM
- inhibition at 10 µM [2]: 6 ± 0.1%

Compound: O=C1C=Cc2cccc3ccc(O)c1c23 [Compound 9-OH, 9-hydroxy-1H-phenalen-1-one]
- antiplasmodium activity (in words) [3]: sub-micromolar activity
- IC50 ([1]; FCR3 strain): 0.72 ± 0.06 µM
- IC50 [1, 5]: < 1 µM
- inhibition at 10 µM [2]: 6 ± 0.7%

Compound: N#Cc1ccc(-c2ccc3cccc4c3c2C(=O)C=C4)cc1 [Compound 10, 4-(1-oxo-1H-phenalen-9-yl)benzonitrile]
- antiplasmodium activity (in words) [3]: detrimental to activity
- IC50 [1, 5]: > 10 µM
- inhibition at 10 µM [2]: 10 ± 1%

Compound: O=C1C=Cc2cccc3ccc(-c4ccc(F)cc4)c1c23 [Compound 11, 9-(4-fluorophenyl)-1H-phenalen-1-one]
- IC50 [1, 5]: > 10 µM
- inhibition at 10 µM [2]: 8 ± 0.2%

Compound: COc1ccc(-c2ccc3cccc4c3c2C(=O)C=C4)cc1 [Compound 12, 9-(4-methoxyphenyl)-1H-phenalen-1-one]
- IC50 [1, 5]: > 10 µM
- inhibition at 10 µM [2]: 15 ± 0.3%

Compound: COc1cccc(-c2ccc3cccc4c3c2C(=O)C=C4)c1 [Compound 13, 9-(3-methoxyphenyl)-1H-phenalen-1-one]
- IC50 [1, 5]: > 10 µM
- inhibition at 10 µM [2]: 12 ± 0.1%

Compound: COc1ccccc1-c1ccc2cccc3c2c1C(=O)C=C3 [Compound 14, 9-(2-methoxyphenyl)-1H-phenalen-1-one]
- IC50 [1, 5]: > 10 µM
- inhibition at 10 µM [2]: 15 ± 0.2%

Compound: COc1ccc(Nc2ccc3cccc4c3c2C(=O)C=C4)cc1 [Compound 15, 9-[(4-methoxyphenyl)amino]-1H-phenalen-1-one]
- IC50 [1, 5]: > 10 µM
- inhibition at 10 µM [2]: 1 ± 0.4%

Compound: Cc1cccc(C)c1Nc1ccc2cccc3c2c1C(=O)C=C3 [Compound 16, 9-[(2,6-dimethylphenyl)amino]-1H-phenalen-1-one]
- IC50 [1, 5]: > 10 µM
- inhibition at 10 µM [2]: 0%

Compound: O=C1C=Cc2cccc3ccc(Nc4ccc(Cl)cc4)c1c23 [Compound 17, 9-[(4-chlorophenyl)amino]-1H-phenalen-1-one]
- IC50 [1, 5]: > 10 µM
- inhibition at 10 µM [2]: 12 ± 0.3%

Compound: N#Cc1ccc2cccc3c2c1C(=O)C=C3 [Compound 18, 1-oxo-1H-phenalene-9-carbonitrile]
- antiplasmodium activity (in words) [3]: most potent compound
- inhibition at 10 µM [2]: 32 ± 0.5%

Compound: NC(=O)c1ccc2cccc3c2c1C(=O)C=C3 [Compound 19, 1-oxo-1H-phenalene-9-carboxamide]
- antiplasmodium activity (in words) [3]: neither the 2-cyano compound (20) nor the 9-amido compound (19) were active, even at 10 µM
- IC50 [1, 5]: > 10 µM
- inhibition at 10 µM [2]: 0%

Compound: N#CC1=Cc2cccc3cccc(c23)C1=O [Compound 20, 1-oxo-1H-phenalene-2-carbonitrile]
- antiplasmodium activity (in words) [3]: neither the 2-cyano compound (20) nor the 9-amido compound (19) were active, even at 10 µM
- IC50 [1, 5]: > 10 µM
- inhibition at 10 µM [2]: 11 ± 0.2%

Compound: O=C1C(Nc2ccc(Cl)cc2)=Cc2cccc3cccc1c23 [Compound 22, 2-[(4-chloroanilino]-1H-phenalen-1-one]
- IC50 [1, 5]: > 10 µM
- inhibition at 10 µM [2]: 42 ± 0.1%

Compound: COc1ccc(NC2=Cc3cccc4cccc(c34)C2=O)cc1 [Compound 23, 2-(4-methoxyanilino)-1H-phenalen-1-one]
- IC50 [1, 5]: > 10 µM
- inhibition at 10 µM [2]: 12 ± 0.6%

Compound: O=C1C(Nc2ncccn2)=Cc2cccc3cccc1c23 [Compound 25, 2-(pyrimidin-2-ylamino)-1H-phenalen-1-one]
- IC50 [1, 5]: > 10 µM
- inhibition at 10 µM [2]: 16 ± 0.9%

Compound: O=C1C=Cc2c(O)ccc3ccc(O)c1c23 [Compound 30, 4,9-dihydroxy-1H-phenalen-1-one]
- antiplasmodium activity (in words) [3]: diminished antiplasmodium activity
- IC50 [1, 5]: > 10 µM
- inhibition at 10 µM [2]: 16 ± 0.4%

Compound: CCOC(=O)c1cc2cccc3c2c(c1O)C(=O)C=C3 [Compound 33, ethyl 9-hydroxy-1-oxo-1H-phenalene-8-carboxylate]
- antiplasmodium activity (in words) [3]: lost
- IC50 [1, 5]: > 10 µM
- inhibition at 10 µM [2]: 0%

Compound: O=C(O)c1cc2cccc3c2c(c1O)C(=O)C=C3 [Compound 34, 9-hydroxy-1-oxo-1H-phenalene-8-carboxylic acid]
- antiplasmodium activity (in words) [3]: lost
- IC50 [1, 5]: > 10 µM
- inhibition at 10 µM [2]: 0%

Compound: O=C1C=Cc2cccc3cncc1c23 [Compound 35, 4H-benzo[de]isoquinolin-4-one]
- antiplasmodium activity (in words) [3]: complete loss of activity
- IC50 [1, 5]: > 10 µM
- inhibition at 10 µM [2]: 7 ± 0.1%

Compound: COc1ccc2c3c(cncc13)C(=O)C=C2 [Compound 36, 9-methoxy-4H-benzo[de]isoquinolin-4-one]
- IC50 [1, 5]: > 10 µM
- inhibition at 10 µM [2]: 5 ± 0.9%

Compound: N-(1-oxo-1H-phenalene-2-yl)carboxamide [Compound 21]
- IC50 ([1]; FCR3 strain): > 10 µM
- MCF-7 % Inh ± DS (10 μM) [2]: 8 ± 0.3%
